The source of these data is patent US9770435B2 (EUROSCREEN SA, priority 2013, dated 2017).

The test system of the assay is TNFα secretion from LPS-stimulated PBMC. The assay is described as follows: Cytokines release from peripheral blood mononuclear cell assay: TNFα. The class given is cell-based. As to conditions: Homo sapiens, 3 h. On the procedure:
Data are presented as percentage of LPS response.
Data are presented as mean±SEM and the final concentration of each tested compound in the assay is 10 μM. Statistical analysis was performed by 2-way ANOVA followed by Dunnet's comparison to vehicle group, ****p<0.0001.
Cytokines Release from Peripheral Blood Mononuclear Cell Assay
Peripheral blood mononuclear cells (PBMC) are purified from heparinised fresh blood sample on a Lymphoprep gradient. PBMC are plated in 96-well assay plate (2×10^5 cells/well) and stimulated with or without LPS (100 ng/ml) and increasing concentration of compounds of the invention for 3 hours at 37° C. Cell supernatants are recovered after centrifugation and human soluble TNFα, IL-6 or other cytokines, are quantified using ELISA assay (R&D system) according manufacturer's recommendation.
Additional results with compounds of the invention are set out in tabulated form (Table 5).

On to `COc1ncc(-c2ccc(C(=O)N3[C@@H](c4ccccc4Cl)CC[C@H]3C(=O)O)cc2)c(OC)n1` [Compound 161, (2S,5R)-5-(2-chlorophenyl)-1-(4-(2,4-dimethoxypyrimidin-5-yl)benzoyl)pyrrolidine-2-carboxylic acid], for which the half-inhibitory concentration (IC50) was 11.8 µM.

For `COc1ncc(-c2ccc(C(=O)N3[C@@H](c4ccccc4Cl)CC[C@H]3C(=O)O)cc2Cl)c(OC)n1` [Compound 325, (2S,5R)-1-(3-chloro-4-(2,4-dimethoxypyrimidin-5-yl)benzoyl)-5-(2-chlorophenyl)pyrrolidine-2-carboxylic acid], the midpoint of inhibition, the IC50, lay at 6 µM.

In turn, `COc1ccc(C#N)cc1-c1ccc(C(=O)N2[C@@H](c3ccccc3Cl)CC[C@H]2C(=O)O)cc1` [Compound 345, (2S,5R)-5-(2-chlorophenyl)-1-(5′-cyano-2′-methoxy-[1,1′-biphenyl]-4-carbonyl)pyrrolidine-2-carboxylic acid] gave an IC50 of 0.99 µM.

On to `COc1cc(C#N)c(-c2ccc(C(=O)N3[C@@H](c4ccccc4Cl)CC[C@H]3C(=O)O)cc2)cc1OC` [Compound 361, (2S,5R)-5-(2-chlorophenyl)-1-(2′-cyano-4′,5′-dimethoxy-[1,1′-biphenyl]-4-carbonyl)pyrrolidine-2-carboxylic acid], for which inhibition was half-maximal at 5.19 µM (IC50).

Turning to `N#Cc1ccccc1-c1ccc(C(=O)N2[C@@H](c3ccccc3Cl)CC[C@H]2C(=O)O)cc1F` [Compound 390, (2S,5R)-5-(2-chlorophenyl)-1-(2′-cyano-2-fluoro-[1,1′-biphenyl]-4-carbonyl)pyrrolidine-2-carboxylic acid], the 50% inhibitory concentration (IC50) came to 5.52 µM.

`Cc1ccc(C#N)cc1-c1ccc(C(=O)N2[C@@H](c3cccc(F)c3F)CC[C@H]2C(=O)O)cc1` [Compound 421, (2S,5R)-1-(5′-cyano-2′-methyl-[1,1′-biphenyl]-4-carbonyl)-5-(2,3-difluorophenyl)pyrrolidine-2-carboxylic acid] showed an IC50 of 2.93 µM.
